In publication PMC5509744 (Scientific Reports, 2017):
Read-outs that look alike come from different tables or passages of the source.

Experiments:
PMM/PGM [1] = biological target: T1, PMM/PGM (Pseudomonas aeruginosa, UniProt P26276, S108C); experiment: biochemical
T1 construct: gene algC

PMM/PGM [2] = biological target: T1, PMM/PGM; details: read-out: Apparent dissociation constant; 50 mM MOPS pH 7.4, 1 mM MgCl2, 310 K; unphosphorylated enzyme

T1 sequence (P26276 whole entry S108C): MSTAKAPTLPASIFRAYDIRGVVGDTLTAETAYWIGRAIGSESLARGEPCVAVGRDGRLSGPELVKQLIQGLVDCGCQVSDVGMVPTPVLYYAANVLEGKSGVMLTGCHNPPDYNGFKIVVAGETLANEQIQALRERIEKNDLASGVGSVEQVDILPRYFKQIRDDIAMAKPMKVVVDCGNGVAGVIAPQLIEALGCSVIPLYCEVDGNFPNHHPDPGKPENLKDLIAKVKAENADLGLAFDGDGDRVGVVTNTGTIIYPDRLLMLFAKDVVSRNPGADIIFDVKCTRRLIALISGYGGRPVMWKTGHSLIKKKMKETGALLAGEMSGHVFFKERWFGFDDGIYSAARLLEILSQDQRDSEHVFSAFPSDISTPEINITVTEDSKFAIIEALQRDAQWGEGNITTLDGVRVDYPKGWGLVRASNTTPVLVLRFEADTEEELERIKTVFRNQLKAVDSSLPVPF

| Structure (SMILES) | Kd (PMM/PGM [1]) | Kd (PMM/PGM [2]) |
| --- | --- | --- |
| O=P(O)(O)O[C@H]1O[C@H](CO)[C@@H](O)[C@H](O)[C@H]1O [G1P, glucose 1-phosphate] | 198 ± 48 µM |  |
| O=P(O)(O)OC[C@H]1O[C@H](OP(=O)(O)O)[C@H](O)[C@@H](O)[C@@H]1O [G16P, glucose 1,6-bisphosphate] | 839 ± 221 µM |  |
| O=P(O)(O)O[C@H]1OC[C@@H](O)[C@H](O)[C@H]1O [X1P, xylose 1-phosphate] | 11 ± 9 µM |  |
| O=P(O)(O)OC[C@H]1OC(O)[C@H](O)[C@@H](O)[C@@H]1O (stereo partly shown) [G6P, glucose 6-phosphate] |  | 20 ± 7 µM |
